In US20120135089A1, “E3 LIGASE INHIBITORS” (priority 2009, published 2012):
Counter-ions that a name gives are not always drawn. Non-standard residues stand in square brackets, D forms with d. Residues, ends and D or L forms follow the SMILES beside them. *: point of attachment. Nle = CCCC[C@H](N)C(=O)O; Cbz = O=C(OCc1ccccc1)*

Legend:
MdmX = experiment: etoposide-induced MdmX degradation in MCF7 cells (Western blot); type: cell-based, human; settings: etoposide 30 μg/ml, 16 hours
Experimental: (§1) Cells were plated in 384-well format and treated with MG132 (2 hours) or cycloheximide (30 minutes). Steadylite luminescence buffer (PerkinElmer) was added and the relative luminescence levels determined on a Victor3 Plate Reader. Each graph represents the median of 5 replicates normalized to a no treatment control, and one standard deviation is shown. […] The graphs and EC50 values were determined using Graphpad PRISM®. […] U2OS, RKO, and HCT116 cells (p53 wild-type) were incubated with 5 μg/ml (14 μM) of MEL23, 5 μg/ml (15 μM) of MEL24, or 10 μM of MG132 for 6 hours. Cells were lysed and analyzed by Western blotting using anti-Mdm2, anti-p53, and anti-eIF4E antibodies. NT indicates a no treatment control. […] MCF7 cells (p53 wild-type) were incubated with 30 μg/ml (51 μM) etoposide alone or in combination with 50 μM AlIn or 5 μg/ml (14 μM) MEL23, or 5 μg/ml (15 μM) MEL24 for 16 hours. Cells were lysed and analyzed by Western blotting using anti-MDMX and anti-actin antibodies.
(§2) Cells were seeded and treated with the indicated compound(s). Cells were lysed after each time point in a buffer of 50 mM TrisHCl pH 7.5, 200 mM NaCl, 0.5% NP-40, and 1 complete mini EDTA-free protease inhibitor cocktail tablet per 10 mL of buffer (Roche, Cat. No. 8360170). Protein content was quantified using a Biorad protein assay reagent (Bio-Rad Laboratories, Hercules, Calif., Cat. No. 500-0006). SDS sample buffer was added to the samples, and the mixture was boiled for 5 minutes. Equal amounts of protein were resolved on a 1D SDS-PAGE gel. Following separation proteins were transferred to nitrocellulose membrane, blocked with 5% milk, and then incubated with primary antibody overnight at 4° C. The membrane was incubated with secondary-HRP antibody for 45 minutes at room temperature and developed with SuperSignal West Pico Substrate (Pierce, Rockford, Ill., Cat. No. 34080).

[1] = molecular target: T1, Mdm2-luciferase fusion protein (Homo sapiens, UniProt Q00987); experiment: cell-based Mdm2 auto-ubiquitination luminescence assay, Mdm2-luciferase cell line; settings: 384-well format
T1 construct: Using full-length Mdm2 allowed for the presence of all domains of Mdm2; expressed in transfected cells
Experimental: as §1
The Mdm2-luciferase cell line was seeded at 7,500 cells per well, in 384-well white plates (PerkinElmer, Waltham, Mass., Cat. No. 6007688), in 27 μl of media (DMEM with FBS and P/S). Assay plates with cells were incubated at 37° C. overnight to allow cells to adhere. After 24 hours, 2 μl from the ‘mother’ plate (4 mg/ml) was transferred to a ‘daughter plate’ containing 148 μl media in order to dilute the compound 1:75. Next, 3 μl from each well of the ‘daughter plates’ was added to triplicate assay plates for a final concentration of 5.33 μg/ml. Assay plates were incubated at 37° C. for 2 hours. Then the cells were lysed with the addition of 30 μl of luminescence buffer (PerkinElmer, Cat. No. 6016989), and the plates were incubated at room temperature for 30 minutes before being analyzed on a Victor3 Plate Reader (PerkinElmer) for luminescence. […] All repurchased compounds were tested in a 2-fold dilution series via the same protocol as the primary screening. All transfers were conducted using a BioMek (Beckman Coulter, Fullerton, Calif.). […] This was determined by comparing the negative control, no treatment, to the positive control, 10 μM MG132.
To identify Mdm2 E3 ligase inhibitors, a high-throughput cellular assay to measure changes in Mdm2 auto-ubiquitination and degradation was designed. This assay took advantage of the fact that Mdm2 can regulate itself in cells through ubiquitination and degradation (8). Two fusion proteins were constructed for the assay: (a) a wild-type Mdm2-luciferase fusion protein, which can auto-ubiquitinate and thereby target itself for degradation; and (b) a mutant Mdm2(C464A)-luciferase fusion protein. Both fusion proteins were constructed with luciferase N-terminal to Mdm2. The C464A mutation disrupts a metal binding site in the RING domain, thereby preventing Mdm2 E3 ligase activity (8). Small molecules that increase the luminescence of the Mdm2-luciferase fusion protein without increasing the luminescence of the Mdm2(C464A)-luciferase fusion protein are likely inhibiting Mdm2 E3 ligase activity or the proteasomal degradation of Mdm2. Alternatively, small molecules that increase the luminescence of both fusion proteins are likely affecting transcription, translation, or have a general cellular impact that is not dependent on the E3 ligase activity of Mdm2 or proteasomal degradation.

Mdm2 and p53 levels = experiment: Western blot of Mdm2 and p53 protein levels in cell lines; type: cell-based, human; settings: 6 hours; for p53 levels in RKO and RKO-E6 cells: isogenic RKO and RKO-E6 (HPV-E6) cells
Experimental: as §1
(§3) H1229 cells were transfected with Mdm2-Flag or remained untransfected. Cells were treated with 5 μg/ml (14 μM) MEL23, 5 μg/ml (15 μM) MEL24, 10 μM MG132, or 1 μg/ml of doxorubicin for 6 hours. Cells were lysed and analyzed by Western blotting using anti-Mdm2 and anti-actin antibodies. The lower band indicated with a star seen with the Mdm2 antibody is a non-specific band. NT indicates a no treatment control. […] RKO and RK0-E6 cells were treated with 5 μg/ml (14 μM) MEL23, 5 μg/ml (15 μM) MEL24, 10 μM MG132, 0.5 μg/ml doxorubicin, 0.5 μg/ml camptothecin or 25 μg/ml Etoposide for 6 hours. Cells were lysed and analyzed by Western blotting using anti-Mdm2, anti-p53, and anti-actin antibodies. The lower band indicated with a star seen with the anti-Mdm2 antibody is a non-specific band. […] RKO cells were treated with 5 μg/ml (14 μM) MEL23, 5 μg/ml (15 μM) MEL24, 10 μM MG132 or 2 μg/ml doxorubicin for 6 hours. Cells were lysed and analyzed by Western blotting using anti-Mdm2, anti-p53, anti-phospho-Ser15 p53, and anti-eiF4E antibodies.
as §2
Cells were lysed and analyzed by Western blotting using anti-Mdm2, anti-p53, and anti-actin antibodies. The lower band seen with the Mdm2 antibody is a non-specific band. NT indicates no treatment control.
Referring now to FIG. 28e, endogenous Mdm2 and p53 protein levels with MEL17 treatment are shown. Briefly, U2OS, RKO, and HCT116 cells (p53 wild-type) were incubated with 5 μg/ml of MEL17 or 10 μM of MG132 for 6 hours. Cells were lysed and analyzed by Western blotting using anti-Mdm2, anti-p53, and anti-actin antibodies. The lower band seen with the Mdm2 antibody is a non-specific band.

p53 ubiquitination = experiment: cell-based p53 ubiquitination assay in H1299 cells; parameters: species or system human; settings: H1299 transfected with p53, Mdm2, ubiquitin; 10 μg/ml pre-treatment, 10 μM MG132
Experimental: To obtain the results shown in FIG. 4A, Mdm2-luciferase cells were transfected with ubiquitin-HA and treated 8 hours later with 10 μg/ml (28 μM) MEL23, 10 μg/ml (31 μM) MEL24, or a DMSO control. After 16 hours, cells were additionally treated with 10 μM MG132 or a DMSO control. After 3 hours, cells were lysed and immunoprecipitated for 3 hours with anti-HA affinity matrix. Total lysates and immunoprecipitated samples were analyzed by Western blotting using anti-Mdm2 antibody. NT indicates a no treatment control. […] After 8 hours, cells were treated with 10 μg/ml (28 μM) MEL23, 10 μg/ml (31 μM) MEL24, or a DMSO control. After 16 hours, cells were additionally treated with 10 μM MG132 or a DMSO control. After 3 hours cells were lysed and analyzed by Western blotting using anti-p53 antibody. “p53-Ub” indicates the slower migrating species of the protein that are the ubiquitin-conjugated forms.
To test the effects of the MEL compounds on p53 ubiquitination, H1299 cells were transfected with plasmids expressing p53, Mdm2, and ubiquitin and pre-treated with 10 μg/ml MEL23 or MEL24, followed by treatment with 10 μM MG132. Ubiquitination of p53 was analyzed by Western blotting. […] In fact, the half-life of p53 increased from an hour to greater than 6 hours with 5 μg/ml MEL23 treatment (FIG. 32). Thus, treatment with MEL23 and MEL24 inhibits ubiquitin conjugation to Mdm2 and p53.

[2] = test system: p53-Ser15 phosphorylation; experiment: p53-Ser15 phosphorylation in RKO cells (Western blot); type: cell-based, human; settings: 6 hours
Experimental: as §3, §2

T1 sequence (Q00987 whole entry, the tested form may be a part): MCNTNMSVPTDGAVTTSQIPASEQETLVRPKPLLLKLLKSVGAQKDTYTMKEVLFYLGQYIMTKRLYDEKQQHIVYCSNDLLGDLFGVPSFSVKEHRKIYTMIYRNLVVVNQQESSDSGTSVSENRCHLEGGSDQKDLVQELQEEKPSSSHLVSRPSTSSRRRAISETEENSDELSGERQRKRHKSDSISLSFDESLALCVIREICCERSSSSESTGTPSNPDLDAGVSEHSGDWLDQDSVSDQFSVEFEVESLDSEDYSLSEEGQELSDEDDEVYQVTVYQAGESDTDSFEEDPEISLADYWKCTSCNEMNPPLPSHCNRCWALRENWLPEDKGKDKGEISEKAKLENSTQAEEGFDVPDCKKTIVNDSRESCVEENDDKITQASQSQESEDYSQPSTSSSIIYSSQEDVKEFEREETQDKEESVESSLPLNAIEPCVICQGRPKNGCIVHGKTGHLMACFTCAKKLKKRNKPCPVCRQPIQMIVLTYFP

| Structure (SMILES) | etoposide-induced MdmX degradation (MdmX) | luminescence of the Mdm2-luciferase cell line [1] | p53 levels in RKO and RKO-E6 cells (Mdm2 and p53 levels) | further results |
| --- | --- | --- | --- | --- |
| CCCC[C@@H](C=O)NC(=O)[C@H](CC(C)C)NC(=O)[C@H](CC(C)C)NC(C)=O [ALLN, N-Acetyl-Leu-Leu-Nle-CHO, reference compound] (Ac-Leu-Leu-[Nle]-aldehyde) | degradation could be prevented |  |  |  |
| CC(C)C[C@@H](C=O)NC(=O)[C@H](CC(C)C)NC(=O)[C@H](CC(C)C)NC(=O)OCc1ccccc1 [MG132, Z-Leu-Leu-Leu-aldehyde, reference compound] (Cbz-Leu-Leu-Leu-aldehyde) |  | increased the levels of the Mdm2-luciferase protein | increased p53 in both cell lines | p53 ubiquitination in cells (p53 ubiquitination): significant increase in p53 ubiquitination |
| CC[C@@]1(O)C(=O)OCc2c1cc1n(c2=O)Cc2cc3ccccc3nc2-1 [camptothecin, reference compound] |  |  | increased p53 in both cell lines |  |
| C[C@@H]1C[C@@H]([C@H](O)CC2CC(=O)NC(=O)C2)C(=O)[C@@H](C)C1 [cycloheximide, reference compound] |  | selectively decreased the luminescence of the Mdm2-luciferase protein |  |  |
| COc1cccc2c1C(=O)c1c(O)c3c(c(O)c1C2=O)C[C@@](O)(C(=O)CO)C[C@@H]3O[C@H]1C[C@H](N)[C@H](O)[C@H](C)O1 [doxorubicin, doxorubicin hydrochloride, reference compound] |  |  | increased p53 in both cell lines | levels of endogenous and ectopically expressed Mdm2 (Mdm2 and p53 levels; p53-null H1299 cells): no effect on Mdm2 levels; phosphorylation of p53 at serine-15 [2]: strongly induced |
| COc1cc([C@@H]2c3cc4c(cc3[C@@H](O[C@@H]3O[C@@H]5CO[C@@H](C)O[C@H]5[C@H](O)[C@H]3O)[C@H]3COC(=O)[C@H]23)OCO4)cc(OC)c1O [etoposide, reference compound] | MdmX levels decreased substantially |  | increased p53 in both cell lines |  |
